Measured values: PubChem BioAssay (NCI)
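A five-concentration, 48-hour dose response in 96-well plates underlies each endpoint, interpolated linearly between surrounding concentrations. GI50 is the concentration that inhibits growth by half. TGI: total growth inhibition.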

Key:
Test in all cases: growth of human tumour cells (NCI), 48 h
SK-MEL-5 melanoma = system: SK-MEL-5 melanoma
T-47D breast = system: T-47D breast
PC-3 prostate = system: PC-3 prostate
NCI-H226 lung = system: NCI-H226 lung
SW-620 colon = system: SW-620 colon
OVCAR-8 ovarian = system: OVCAR-8 ovarian
ACHN renal = system: ACHN renal
UO-31 renal = system: UO-31 renal
IGROV1 ovarian = system: IGROV1 ovarian
RXF 393 renal = system: RXF 393 renal

| Structure (SMILES) | TGI (SK-MEL-5 melanoma) | TGI (T-47D breast) | TGI (PC-3 prostate) | TGI (NCI-H226 lung) | TGI (SW-620 colon) | TGI (OVCAR-8 ovarian) | TGI (ACHN renal) | TGI (UO-31 renal) | TGI (IGROV1 ovarian) | GI50 (SK-MEL-5 melanoma) | GI50 (T-47D breast) | GI50 (PC-3 prostate) | GI50 (SW-620 colon) | GI50 (IGROV1 ovarian) | GI50 (OVCAR-8 ovarian) | GI50 (ACHN renal) | GI50 (RXF 393 renal) | TGI (RXF 393 renal) | GI50 (UO-31 renal) | GI50 (NCI-H226 lung) |
| --- | --- | --- | --- | --- | --- | --- | --- | --- | --- | --- | --- | --- | --- | --- | --- | --- | --- | --- | --- | --- |
| O=C(c1ccccc1)C1N=NCC1c1ccc([N+](=O)[O-])cc1 (stereo not drawn) | 59.6 µM | 30.9 µM | > 100 µM | > 100 µM | > 100 µM | > 100 µM | > 100 µM | > 100 µM | – | – | – | – | – | – | – | – | – | – | – | – |
| C=C1C(=O)O[C@H]2[C@H]1[C@H](OC(=O)/C(C)=C\C)CC(=C)[C@@H]1[C@H](O)[C@H]3O[C@@]3(C)[C@@]12O | > 100 µM | – | – | – | > 100 µM | > 100 µM | > 100 µM | > 100 µM | > 100 µM | – | – | – | – | – | – | – | – | – | – | – |
| CCN(Cc1ccc(F)c(F)c1)c1ccc(CO)c(Cl)c1 | 20.3 µM | 0.667 µM | 27.4 µM | – | 21 µM | 27.9 µM | 22.8 µM | 19.2 µM | 0.477 µM | 5.85 µM | 97.7 nM | 12300 nM | 0.753 µM | 98 nM | 11900 nM | 9.77 µM | 2730 nM | 15.9 µM | 2700 nM | – |
| C=CCC1([C@H](C)[C@@H](OC(C)=O)c2cc(OC)c(OC)c(OC)c2)C[C@@H](OC)CCC1=O (stereo partly drawn) | > 100 µM | – | – | 44.2 µM | 38.6 µM | 54.2 µM | 41.4 µM | – | 33.5 µM | – | – | – | – | – | – | – | – | 26.6 µM | – | – |
| CC(=O)NNc1nc(C)c(C(=O)NNC(=O)C(=O)Nc2ccccc2C#N)s1 | > 100 µM | – | – | > 100 µM | > 100 µM | > 100 µM | > 100 µM | > 100 µM | > 100 µM | – | – | – | – | – | – | – | – | > 100 µM | – | – |
| COc1ccccc1NC(=O)CC(=O)N1N=C(C)C(N=Nc2ccc(S(N)(=O)=O)cc2)C1=O (stereo not drawn) | > 100 µM | – | – | > 100 µM | > 100 µM | > 100 µM | > 100 µM | > 100 µM | > 100 µM | – | – | – | – | – | – | – | – | > 100 µM | – | – |
| N#C/C(=C1\OC(=O)C(c2ccc(Br)cc2)=C1O)c1ccc(Br)cc1 | – | – | – | 34 µM | 27.3 µM | 24.6 µM | 29.6 µM | 28.5 µM | 34.4 µM | – | – | – | – | – | – | – | – | 26.7 µM | – | – |
| CCCCCn1c(=N)n(CC(O)COc2cccc(C)c2)c2ccccc21 (stereo not drawn) | 7.82 µM | 10.6 µM | 16.3 µM | 28 µM | 18.3 µM | 5.04 µM | 23.8 µM | 17.6 µM | 18 µM | 2.75 µM | 3330 nM | 4000 nM | 4.26 µM | 4450 nM | 2110 nM | 8.85 µM | – | – | 4030 nM | 10.3 µM |
| COc1ccc(-c2cc(=O)c3cc4c(cc3[nH]2)OCO4)c(OC)c1OC | > 100 µM | – | – | > 100 µM | > 100 µM | > 100 µM | > 100 µM | > 100 µM | > 100 µM | – | – | – | – | – | – | – | – | > 100 µM | – | – |
| CC(=O)NC(CCCNCc1ccccc1)C(=O)NCc1ccccc1 (stereo not drawn) | > 100 µM | – | – | > 100 µM | > 100 µM | > 100 µM | > 100 µM | > 100 µM | > 100 µM | – | – | – | – | – | – | – | – | > 100 µM | – | – |
| CCCC[C@H](NC(=O)[C@H]1CCCN1C)C(=O)N(C)[C@H](C[C@@H](OC(C)=O)c1nc(C(=O)N[C@@H](Cc2ccccc2)C[C@H](C)C(=O)OCC)cs1)C(C)C | 0.063 µM | – | > 33.3 µM | 16.4 µM | > 33.3 µM | > 33.3 µM | – | > 33.3 µM | > 33.3 µM | < 0.00333 µM | – | 9.57 nM | 0.0106 µM | 15.7 nM | 36 nM | – | 7.45 nM | 11.3 µM | 209 nM | 0.531 µM |
| N#CC(C(=O)/C(=N/NC(=O)c1ccccc1O)C(C#N)c1ccc(Cl)cc1)c1ccc(Cl)cc1 (stereo not drawn) | – | – | – | 31.8 µM | 29.1 µM | 26.3 µM | 29.6 µM | 30.9 µM | – | – | – | – | – | – | – | – | – | 16.4 µM | – | – |
| CN(C(=O)C12C3C4C5C3C1(C(=O)O)C5C42)C(C)(C)C (stereo not drawn) | > 100 µM | – | – | > 100 µM | 60.8 µM | > 100 µM | > 100 µM | > 100 µM | > 100 µM | – | – | – | – | – | – | – | – | – | – | – |
| Nc1ccn(Cc2ccc(C34CC5CC(CC(C5)C3)C4)c(O)c2)c(=O)n1 | > 100 µM | > 100 µM | – | > 100 µM | > 100 µM | – | > 100 µM | > 100 µM | – | 82.4 µM | > 100000 nM | – | > 100 µM | – | – | > 100 µM | – | – | > 100000 nM | > 100 µM |
| COc1cc2c(cc1OC)C(N(C)C)C(c1ccccc1)=C2Cl (stereo not drawn) | – | – | – | 56.4 µM | 29.8 µM | 47.8 µM | – | 32 µM | 47.5 µM | – | – | – | – | – | – | – | – | 29.3 µM | – | – |
| CC1SC(c2c(Cl)cccc2Cl)N(NC(=O)c2[nH]c3ccc(F)cc3c2-c2ccccc2)C1=O (stereo not drawn) | 11.9 µM | 14 µM | 4.46 µM | – | 11.2 µM | 3.39 µM | 8.35 µM | 8.61 µM | 7.9 µM | 2.72 µM | 2610 nM | 1980 nM | 3.19 µM | 2370 nM | 1700 nM | 2.82 µM | 1730 nM | 4.12 µM | 2130 nM | – |
| COc1cccc(NC(=O)CC(=O)N2N=C(N(CCC#N)c3ccc(Cl)cc3)CC2c2ccccc2)c1 (stereo not drawn) | > 100 µM | – | – | > 100 µM | > 100 µM | > 100 µM | > 100 µM | > 100 µM | > 100 µM | – | – | – | – | – | – | – | – | > 100 µM | – | – |
| CC1=NOC(=O)/C1=C/c1ccccc1O | > 100 µM | – | – | > 100 µM | 73.9 µM | > 100 µM | > 100 µM | > 100 µM | > 100 µM | – | – | – | – | – | – | – | – | – | – | – |
| c1cc(-c2cn3ccsc3n2)ccn1 | > 100 µM | – | – | > 100 µM | > 62.3 µM | > 63.8 µM | > 100 µM | > 100 µM | > 100 µM | – | – | – | – | – | – | – | – | – | – | – |
| O=C(CC(=O)CC(O)(C(F)(F)F)C(F)(F)F)CC(O)(C(F)(F)F)C(F)(F)F | > 10 µM | > 10 µM | – | > 10 µM | > 10 µM | > 10 µM | > 10 µM | > 10 µM | > 10 µM | – | – | – | – | – | – | – | – | > 10 µM | – | – |
| O=C([O-])c1ccccc1Nc1ccccn1.O=C([O-])c1ccccc1Nc1ccccn1.[Ni+2] | > 100 µM | – | – | > 100 µM | > 100 µM | > 100 µM | > 100 µM | > 100 µM | > 100 µM | 73.9 µM | – | – | > 100 µM | > 100000 nM | > 100000 nM | > 100 µM | > 100000 nM | > 100 µM | 48900 nM | 33.9 µM |
